Activity calls are given as the source filed them. No rule for the calls is given here.
System: rodent carcinogenicity bioassays, tumor incidence
Assay: CCRIS carcinogenicity studies
Settings: Dose: 0, Dose: 0
Procedure, shortened: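 Archive of carcinogenicity, mutagenicity, tumor promotion and tumor inhibition results drawn from journals, NCI reports and other sources, expert-reviewed; covers 1985-2011 and is no longer updated.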

COc1cc(OC)nc(NC(=O)NS(=O)(=O)c2cc(NC=O)ccc2C(=O)N(C)C)n1
carcinogen call (Species: Mouse, Strain/Sex: Crl:CD-1(ICR)BR/Female (51/Group), Route: Oral, 40, 800, 8000 ppm of 94.6% foramsulfuron in diet for 80 wk, study duration 80 wk, 40, 800, 8000 ppm of 94.6% foramsulfuron in diet for 80 wk, study duration 80 wk): inactive; negative
carcinogen call (Species: Mouse, Strain/Sex: Crl:CD-1(ICR)BR/Male (51/Group), Route: Oral, 40, 800, 8000 ppm of 94.6% foramsulfuron in diet for 80 wk, study duration 80 wk, 40, 800, 8000 ppm of 94.6% foramsulfuron in diet for 80 wk, study duration 80 wk): inactive; negative
carcinogen call (Species: Rat, Strain/Sex: Sprague Dawley CRL:CD (IGS) BR/Female (50/Group), Route: Oral, 100, 600, 6000, 20,000 ppm of 94.6% foramsulfuron in diet for 104 wk, study duration 104 wk, 100, 600, 6000, 20,000 ppm of 94.6% foramsulfuron in diet for 104 wk, study duration 104 wk): inactive; negative
carcinogen call (Species: Rat, Strain/Sex: Sprague Dawley CRL:CD (IGS) BR/Male (50/Group), Route: Oral, 100, 600, 6000, 20,000 ppm of 94.6% foramsulfuron in diet for 104 wk, study duration 104 wk, 100, 600, 6000, 20,000 ppm of 94.6% foramsulfuron in diet for 104 wk, study duration 104 wk): inactive; negative

NC(=O)OC1CO1 (configuration not stated)
carcinogen call (Species: MOUSE, Strain/Sex: B6C3F1/MALE, Route: INTRAPERITONEAL, 0.5, 1.25, 2.5 UG/G BW IN 10 µL TRIOCTANOIN ONCE (STUDY DURATION: 9 MO), 0.5, 1.25, 2.5 UG/G BW IN 10 µL TRIOCTANOIN ONCE (STUDY DURATION: 9 MO), Tumor Site: Type of Lesion: LIVER: HEPATOMA): active; positive
carcinogen call (Species: MOUSE, Strain/Sex: CD-1/FEMALE, Route: DERMAL, 11.5 UMOL IN WEEKS 1 AND 2 THEN 5.7 UMOL IN WEEKS 3 AND 4 FOLLOWED BY 3.8 UMOL/WK FOR 28 WK (STUDY DURATION: 42 WK), Tumor Site: Type of Lesion: SKIN: PAPILLOMA, CARCINOMA): active; positive
carcinogen call (Species: MOUSE, Strain/Sex: STRAIN-A/FEMALE, Route: INTRAPERITONEAL, 34, 68 NMOL/G BW IN 5 µL TRIOCTANOIN ONCE (STUDY DURATION: 6 MO), 34, 68 NMOL/G BW IN 5 µL TRIOCTANOIN ONCE (STUDY DURATION: 6 MO), Tumor Site: Type of Lesion: LUNG: ADENOMA): active; positive
carcinogen call (Species: RAT, Strain/Sex: SPRAGUE-DAWLEY/FEMALE, Route: INTRAMUSCULAR, 1.15, 2.30 UMOL IN 0.25 ML TRIOCTANOIN 1/WK FOR 10 WK (STUDY DURATION: 18 MO), 1.15, 2.30 UMOL IN 0.25 ML TRIOCTANOIN 1/WK FOR 10 WK (STUDY DURATION: 18 MO), Tumor Site: Type of Lesion: INJECTION SITE: SARCOMA, MAMMARY GLAND: TUMOR): active; positive

ClC=C(Cl)Cl
carcinogen call (Species: MOUSE, Strain/Sex: B6C3F1/FEMALE, Route: GAVAGE, 869, 1739 MG/KG/D, TWA, 869, 1739 MG/KG/D, TWA, Tumor Site: Type of Lesion: LIVER: HEPATOCELLULAR CARCINOMA): active; positive
carcinogen call (Species: MOUSE, Strain/Sex: B6C3F1/FEMALE, Route: GAVAGE, 1000 MG/KG IN CORN OIL 5 D/WK FOR 103 WK (STUDY DURATION: 107 WK), Tumor Site: Type of Lesion: LIVER: ADENOMA, CARCINOMA): active; positive
carcinogen call (Species: MOUSE, Strain/Sex: B6C3F1/FEMALE, Route: INHALATION, 100, 300, 600 PPM 7 HR/D 5 D/WK FOR 78 WK (STUDY DURATION: LIFETIME), 100, 300, 600 PPM 7 HR/D 5 D/WK FOR 78 WK (STUDY DURATION: LIFETIME), Tumor Site: Type of Lesion: LUNG: TUMOR): active; positive
carcinogen call (Species: MOUSE, Strain/Sex: B6C3F1/MALE, Route: GAVAGE, 1000 MG/KG IN CORN OIL 5 D/WK FOR 103 WK (STUDY DURATION: 107 WK), Tumor Site: Type of Lesion: LIVER: ADENOMA, CARCINOMA): active; positive
carcinogen call (Species: MOUSE, Strain/Sex: B6C3F1/MALE, Route: GAVAGE, 1169, 2339 MG/KG/D, TWA, 1169, 2339 MG/KG/D, TWA, Tumor Site: Type of Lesion: LIVER: HEPATOCELLULAR CARCINOMA): active; positive
carcinogen call (Species: MOUSE, Strain/Sex: B6C3F1/MALE, Route: INHALATION, 100, 300, 600 PPM 7 HR/D 5 D/WK FOR 78 WK (STUDY DURATION: LIFETIME), 100, 300, 600 PPM 7 HR/D 5 D/WK FOR 78 WK (STUDY DURATION: LIFETIME)): inactive; negative
carcinogen call (Species: MOUSE, Strain/Sex: ICR/MALE, FEMALE, Route: GAVAGE, 10 MG/KG IN CORN OIL 5 D/WK FOR 18 MO (DOSES REDUCED BY FACTOR OF 2 FROM 40TH WEEK)(STUDY DURATION: 24 MO)): inactive; negative
carcinogen call (Species: MOUSE, Strain/Sex: SWISS/FEMALE, Route: INHALATION, 100, 300, 600 PPM 7 HR/D 5 D/WK FOR 78 WK (STUDY DURATION: LIFETIME), 100, 300, 600 PPM 7 HR/D 5 D/WK FOR 78 WK (STUDY DURATION: LIFETIME)): inactive; negative
carcinogen call (Species: MOUSE, Strain/Sex: SWISS/MALE, Route: INHALATION, 100, 300, 600 PPM 7 HR/D 5 D/WK FOR 78 WK (STUDY DURATION: LIFETIME), 100, 300, 600 PPM 7 HR/D 5 D/WK FOR 78 WK (STUDY DURATION: LIFETIME), Tumor Site: Type of Lesion: LUNG: TUMOR, LIVER: HEPATOMA): active; positive
carcinogen call (Species: RAT, Strain/Sex: F344/FEMALE, Route: GAVAGE, 500, 1000 MG/KG IN CORN OIL 5 D/WK FOR 103 WK (STUDY DURATION: 107 WK), 500, 1000 MG/KG IN CORN OIL 5 D/WK FOR 103 WK (STUDY DURATION: 107 WK)): inactive; negative
carcinogen call (Species: RAT, Strain/Sex: SPRAGUE-DAWLEY/FEMALE, Route: GAVAGE, 50, 250 MG/KG BW IN OLIVE OIL 1/D 4-6 D/WK FOR 52 WK (STUDY DURATION: LIFETIME), 50, 250 MG/KG BW IN OLIVE OIL 1/D 4-6 D/WK FOR 52 WK (STUDY DURATION: LIFETIME), Tumor Site: Type of Lesion: [BRAIN WAS ONLY SITE EVALUATED]): inactive; negative
carcinogen call (Species: RAT, Strain/Sex: SPRAGUE-DAWLEY/FEMALE, Route: INHALATION, 100, 300, 600 PPM 7 HR/D 5 D/WK FOR 104 WK (STUDY DURATION: LIFETIME), 100, 300, 600 PPM 7 HR/D 5 D/WK FOR 104 WK (STUDY DURATION: LIFETIME)): inactive; negative
carcinogen call (Species: RAT, Strain/Sex: SPRAGUE-DAWLEY/MALE, Route: GAVAGE, 50, 250 MG/KG BW IN OLIVE OIL 1/D 4-6 D/WK FOR 52 WK (STUDY DURATION: LIFETIME), 50, 250 MG/KG BW IN OLIVE OIL 1/D 4-6 D/WK FOR 52 WK (STUDY DURATION: LIFETIME), Tumor Site: Type of Lesion: [BRAIN WAS ONLY SITE EVALUATED]): inactive; negative
carcinogen call (Species: RAT, Strain/Sex: SPRAGUE-DAWLEY/MALE, Route: INHALATION, 100, 300, 600 PPM 7 HR/D 5 D/WK FOR 104 WK (STUDY DURATION: LIFETIME), 100, 300, 600 PPM 7 HR/D 5 D/WK FOR 104 WK (STUDY DURATION: LIFETIME), Tumor Site: Type of Lesion: TESTIS: LEYDIG CELL TUMOR): active; positive

Reference: PubChem BioAssay AID1259411 (Chemical Carcinogenesis Research Information System (CCRIS), 2018)
